Results as given in patent US20140087003A1, “METHOD FOR TREATING VENOMOUS BITES AND STINGS” (priority 2012, published 2014).

Assay: pH of the solution
Format: physicochemical

SMILES | pH of strong basic solutions used as high pH controls
[Na+].[OH-] [sodium hydroxide] | 14
[K+].[OH-] [potassium hydroxide] | 14
